The values below come from patent publication US20160015034A1, “Co-Crystals of Pyrimethanil and Selected Dithiine Tetracarboximide” (BASF SE, priority 2013, published 2016).

In brackets after ≈: the same amount, converted by molar mass.

The nature of data set [1]: Isothermal TGA volatility study. In kind it is physicochemical. The following applies: isothermal TGA at 100 C., nitrogen flow, weight loss monitored for 12 hours. The procedure: Isothermal Analysis of the Co-Crystals
TG/DTA measurement was carried out on a Seiko TG/DTA 7200 instrument. An open aluminium pan was used and the measurement was carried out under nitrogen flow with a sample weight of 5 to 10 mg. The isothermal TGA for volatility studies were performed at 100 C. and the weight loss was monitored for 12 hours.

Data set [2] in a line: Water solubility by slurry equilibration and HPLC. It is filed as physicochemical. As to conditions: pH 7, aqueous buffer, thermodynamic from solid. How it is done: Water Solubility of the Co-Crystals
The determination of the amount of the actives in solution was performed on HPLC ACQUITY (Water) system, equipped with PDA—230 nm UV detector and Sample Manager auto-injector.
Waters' Enpower software was used to record the chromatograms and to calculate the chromatographic parameters. Gradient elution (Acetonitrile—0.1% H3PO4) was achieved using C18 column, 50×2.1 mm, 1.7 μm BEH. Injection volume was set 1 μL by auto injector. The analysis were performed with rate flux of 0.4 ml/min. UV detection was performed at 245 nm. Peak identities were confirmed by spectrum and retention time comparison. All the analyses were performed at room temperature. All the analyzed solutions were prepared by slurry equilibration experiments. Particularly, water suspensions (KH2PO4/NaOH buffer having pH value of 7) of dithiine, pyrimethanil and the co-crystals were slurried for 1 hour, according with the maximum value of the intrinsic dissolution profile of the pure active. After 60 minutes small samples of about 1.0 ml were recovered with a syringe and filtered through a 0.1 micrometer PVDF Millipore filtration unit. Both solid phase and liquid phase were analyzed by XRPD and HPLC, respectively.

For orientation: solubility means how much of the substance goes into solution per volume. Higher therefore signals much dissolved substance. With `Cn1c(=O)c2sc3c(=O)n(C)c(=O)c3sc2c1=O`, the “TGA Volatility (% weight loss per minute)” value in data set [1] is 5.45 × 10^−3 % weight loss per minute. In data set [2], this molecule displayed a solubility at 1 h of 2 µg/mL (≈ 7.08 µM).

On to `Cc1cc(C)nc(Nc2ccccc2)n1` [pyrimethanil], for which the “TGA Volatility (% weight loss per minute)” value in data set [1] was 1.20 × 10^−2 % weight loss per minute. The solubility at 1 h in data set [2] worked out at 58 µg/mL (≈ 291 µM).
